The structures appear in SMILES notation. Some results are limits rather than exact numbers.

In this assay the target is T1, GRK2 (Homo sapiens, UniProt P25098).
T1 sequence (P25098 1-689): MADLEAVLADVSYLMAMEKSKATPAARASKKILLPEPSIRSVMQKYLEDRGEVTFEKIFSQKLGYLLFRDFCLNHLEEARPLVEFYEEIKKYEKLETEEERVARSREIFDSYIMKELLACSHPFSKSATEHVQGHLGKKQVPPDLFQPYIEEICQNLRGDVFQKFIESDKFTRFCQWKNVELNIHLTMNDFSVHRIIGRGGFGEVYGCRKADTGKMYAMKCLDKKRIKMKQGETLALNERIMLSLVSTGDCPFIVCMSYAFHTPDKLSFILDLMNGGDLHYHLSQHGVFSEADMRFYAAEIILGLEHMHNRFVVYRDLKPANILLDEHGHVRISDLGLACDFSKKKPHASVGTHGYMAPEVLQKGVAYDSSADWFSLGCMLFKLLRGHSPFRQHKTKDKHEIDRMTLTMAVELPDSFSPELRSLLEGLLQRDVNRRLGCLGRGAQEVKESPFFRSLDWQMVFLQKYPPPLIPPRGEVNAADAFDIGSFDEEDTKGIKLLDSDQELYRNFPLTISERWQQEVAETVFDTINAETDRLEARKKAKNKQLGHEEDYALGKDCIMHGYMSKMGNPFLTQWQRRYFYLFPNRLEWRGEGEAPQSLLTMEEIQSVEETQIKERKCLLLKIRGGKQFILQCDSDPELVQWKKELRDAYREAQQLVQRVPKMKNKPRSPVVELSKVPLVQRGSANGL
Put plainly: hGRK2 LANCE Ultra In Vitro Assay. In kind it is biochemical. The note with it: Biological Example 1 GRK2 Lancer IC50 (μM), 10 nM GRK2; 30 or 600 μM ATP (not stated which); multiple measurements listed individually. The method in brief: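 TR-FRET kinase assay with 10 nM GRK2 preincubated 30 min with compound, then 200 nM ULight-peptide and 30 or 600 μM ATP in HEPES pH 7.5, 10 mM MgCl2, 1% DMSO; 120 or 60 min at ambient temperature respectively.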
A general note: Time-resolved FRET reads energy transfer from a long-lived donor to a nearby acceptor.

Take `COc1cccc([C@@H](C2CC2)N2Cc3ccc(-c4cn[nH]c4)cc3C2=O)c1` [Compound 96]: the IC50 (usually the concentration that inhibits the measured activity by half) was 0.012 µM.

`CCOc1cccc([C@H](C(=O)O)N2Cc3ccc(-c4cn[nH]c4)cc3C2=O)c1` [Compound 74] came in with an IC50 of 4.2 µM. Compared with the last molecule, the IC50 is about 350-fold higher. The result for `COc1cccc(CN2C(=O)c3cc(-c4cn[nH]c4)ccc3C2(CCO)CCO)c1` [Compound 41, 3,3-bis(2-hydroxyethyl)-2-(3-methoxybenzyl)-6-(1H-pyrazol-4-yl)isoindolin-1-one] reads 0.034 µM; that for `COc1ccc(OC)c(C(CO)N2Cc3ccc(-c4cn[nH]c4)cc3C2=O)c1` (stereo not drawn) [Compound 52, 2-(1-(2,5-dimethoxyphenyl)-2-hydroxyethyl)-6-(1H-pyrazol-4-yl)isoindolin-1-one], 0.742 µM. The result for `O=C(O)COc1cccc(CN2Cc3ccc(-c4cn[nH]c4)cc3C2=O)c1` [Compound 55] reads 0.011 µM; that for `CCOc1cccc(CN2C(=O)c3cc(-c4c[nH]nn4)ccc3C2(C)C)c1` [Compound 39, 2-(3-Ethoxybenzyl)-3,3-dimethyl-6-(1H-1,2,3-triazol-4-yl)isoindolin-1-one], 0.196 µM.

Turning to `COc1cccc(C(CO)N2Cc3c(cc(-c4cn[nH]c4)cc3-c3ccncc3)C2=O)c1` (stereo not drawn) [Compound 133, 2-(2-Hydroxy-1-(3-methoxyphenyl)ethyl)-6-(1H-pyrazol-4-yl)-4-(pyridin-4-yl)isoindolin-1-one], the IC50 is 0.021 µM. Molecule `COc1cccc([C@@H](C)N2Cc3c(cc(-c4cn[nH]c4)cc3N3CCN(C)CC3)C2=O)c1` [Compound 156, (R)-2-(1-(3-methoxyphenyl)ethyl)-4-(4-methylpiperazin-1-yl)-6-(1H-pyrazol-4-yl)isoindolin-1-one] displayed an IC50 of 0.011 µM.

In the case of `COc1cccc([C@@H](C(=O)O)N2Cc3ccc(-c4cn[nH]c4)cc3C2=O)c1` [Compound 169], the IC50 is 0.542 µM. Compared with the last molecule, the IC50 is about 49-fold higher. `COc1cccc([C@@H](C)N2Cc3ccc(-c4cn[nH]c4)c(F)c3C2=O)c1` [Compound 30, 7-fluoro-2-[(1R)-1-(3-methoxyphenyl)ethyl]-6-(1H-pyrazol-4-yl)isoindolin-1-one] returned an IC50 of under 0.005 µM.

As for `COC(=O)NC1CCC2(C1)c1ccc(-c3cn[nH]c3)cc1C(=O)N2Cc1cccc(OC)c1` (stereo not drawn) [Compound 109, methyl (2′-(3-methoxybenzyl)-3′-oxo-5′-(1H-pyrazol-4-yl)spiro[cyclopentane-1,1′-isoindolin]-3-yl)carbamate], inhibition was half-maximal at 0.006 µM (IC50).

Molecule `CC(=O)Oc1cccc(CN2Cc3ccc(-c4cn[nH]c4)cc3C2=O)c1` [Compound 136] displayed an IC50 of 0.014 µM.

The molecule `CC(C)NC(=O)c1cccc(CN2Cc3cc(F)c(-c4cn[nH]c4)cc3C2=O)c1` [Compound 166] gave an IC50 of 0.005 µM.

In turn, `COc1cccc([C@@H](C)N2Cc3c(cc(-c4cn[nH]c4)cc3-c3ccc(C(C)(C)O)nc3)C2=O)c1` [Compound 141, (R)-4-(6-(2-hydroxypropan-2-yl)pyridin-3-yl)-2-(1-(3-methoxyphenyl)ethyl)-6-(1H-pyrazol-4-yl)isoindolin-1-one] came in with an IC50 of 0.02 µM. This IC50 is about 4-fold higher than that of the molecule before. In the case of `O=C1c2cc(-c3cn[nH]c3)ccc2CN1Cc1cccc(-n2cccn2)c1` [Compound 119] it was 0.113 µM. As to `COc1cccc([C@@H](C)N2Cc3c(cc(-c4cn[nH]c4)cc3-c3ccncc3)C2=O)c1` [Compound 121, (R)-2-(1-(3-methoxyphenyl)ethyl)-6-(1H-pyrazol-4-yl)-4-(pyridin-4-yl)isoindolin-1-one], the IC50 was 0.01 µM. In the case of `COc1cccc(C(CO)N2Cc3c(cc(-c4cn[nH]c4)cc3-c3cccc(O)c3)C2=O)c1` (stereo not drawn) [Compound 143, 2-(2-hydroxy-1-(3-methoxyphenyl)ethyl)-4-(3-hydroxyphenyl)-6-(1H-pyrazol-4-yl)isoindolin-1-one] it was 0.005 µM. The result for `COc1cccc(C(COCC(=O)O)N2Cc3ccc(-c4cn[nH]c4)cc3C2=O)c1` (stereo not drawn) [Compound 60, 2-(2-(3-methoxyphenyl)-2-(1-oxo-6-(1H-pyrazol-4-yl)isoindolin-2-yl)ethoxy)acetic acid] reads 0.017 µM.

The record behind these values is patent US20220009906A1, “ISOINDOLIN-1-ONE DERIVATIVES USEFUL AS GRK2 INHIBITORS” (priority 2020, published 2022).
